Laboratory results reported in US20160090571A1, “CULTURE MEDIA AND METHODS FOR CULTURING MICROORGANISMS” (Orior, LLC, priority 2014, published 2016).

Test system: microorganism associated with Morgellons disease
Test: Drug sensitivity / growth inhibition testing of the cultured microorganism
Type: cell-based
Conditions: for inhibitory effect on organism growth: antibiotic added to solution
From the text: In other studies, Itraconazole and Posaconazole were each added to the culture medium followed by the organism.

Row | Molecule | inhibitory effect on organism growth | inhibition of growth (antifungal agent added to the culture medium followed by the organism)
1 | Neomycin | no inhibitory effect | 
2 | CC[C@@H]([C@H](C)O)n1ncn(-c2ccc(N3CCN(c4ccc(OC[C@@H]5CO[C@@](Cn6cncn6)(c6ccc(F)cc6F)C5)cc4)CC3)cc2)c1=O [Posaconazole] |  | Neither antifungal agent was shown to inhibit growth
3 | Penicillin | no inhibitory effect | 
4 | CN(C)[C@@H]1C(O)=C(C(N)=O)C(=O)[C@@]2(O)C(O)=C3C(=O)c4c(O)cccc4[C@@](C)(O)[C@H]3C[C@@H]12 [Tetracycline] | no inhibitory effect | 
5 | CC[C@H]1OC(=O)[C@H](C)[C@@H](O[C@H]2C[C@@](C)(OC)[C@@H](O)[C@H](C)O2)[C@H](C)[C@@H](O[C@@H]2O[C@H](C)C[C@H](N(C)C)[C@H]2O)[C@](C)(O)C[C@@H](C)C(=O)[C@H](C)[C@@H](O)[C@]1(C)O [Erythromycin] | no inhibitory effect | 
6 | O=C(O)c1cn(C2CC2)c2cc(N3CCNCC3)c(F)cc2c1=O [Ciprofloxacin] | no inhibitory effect | 
7 | CC1(C)S[C@@H]2[C@H](NC(=O)[C@H](N)c3ccccc3)C(=O)N2[C@H]1C(=O)O [Ampicillin] | no inhibitory effect | 
